The source of these data is patent US11439622B2 (OXFORD UNIVERSITY INNOVATION LIMITED, priority 2015, dated 2022).

Where two headings read alike, the source gives them in different places. Bounds are passed on as bounds.

Holding throughout (type): biochemical
Assay [1] has as its target VIM-2 (Veronese metallo-β-lactamase-2) (Escherichia coli, UniProt Q5U7L7). Briefly: Enzyme inhibition assay, VIM-2. The protocol:
(§1) The biological activity of the compounds of the present invention was tested using standard assay protocols.^7 The following representative enzymes NDM-1 (New Delhi metallo-β-lactamase-1), IMP-1 (Imipenemase-1) and VIM-2 (Veronese metallo-β-lactamase-2) were selected from different clinically relevant B1 metallo-β-lactamases.

The target in the next assay is IMP-1 (Imipenemase-1) (Serratia marcescens, UniProt P52699). Briefly: Enzyme inhibition assay, IMP-1. The method, then:
as §1

For assay [2], the target named is NDM-1 (New Delhi metallo-β-lactamase-1) (Klebsiella pneumoniae, UniProt C7C422). Briefly: Enzyme inhibition assay, NDM-1. The method, then:
as §1

The mark [3] stands for this setting: read-out: pIC50 VIM-2 (converted).
Setting [4] is: read-out: pIC50 IMP-1 (converted).
Setting [5] is: read-out: pIC50 NDM-1 (converted).

NDM-1 (New Delhi metallo-β-lactamase-1), sequence (C7C422 29-270, looked up, species assumed): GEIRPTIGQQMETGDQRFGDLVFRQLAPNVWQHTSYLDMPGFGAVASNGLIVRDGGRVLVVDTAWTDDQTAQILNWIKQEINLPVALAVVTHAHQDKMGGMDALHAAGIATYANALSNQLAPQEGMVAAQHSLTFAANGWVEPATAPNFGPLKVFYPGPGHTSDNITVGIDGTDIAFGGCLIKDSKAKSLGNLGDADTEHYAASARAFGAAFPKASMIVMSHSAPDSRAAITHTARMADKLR
IMP-1 (Imipenemase-1), sequence (P52699 19-246, looked up, species assumed): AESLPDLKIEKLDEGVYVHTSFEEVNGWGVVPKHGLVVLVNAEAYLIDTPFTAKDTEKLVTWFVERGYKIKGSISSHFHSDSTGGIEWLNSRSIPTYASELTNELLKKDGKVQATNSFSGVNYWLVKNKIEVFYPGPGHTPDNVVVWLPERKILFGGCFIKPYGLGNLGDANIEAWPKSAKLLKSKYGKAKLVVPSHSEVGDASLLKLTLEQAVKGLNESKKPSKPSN

Regarding `Cc1c(Oc2ccccc2)ccc2c(-c3ccc(C(=O)N(C)C)cc3)c(C(=O)O)[nH]c12` [Example 86, 3-(4-(dimethylcarbamoyl)phenyl)-7-methyl-6-phenoxy-1H-indole-2-carboxylic acid], the figures for the IC50 (in assay [1] (setting [3]); on IMP-1 (Imipenemase-1) (setting [4]); in assay [2] (setting [5])) were 575 nM, 646 nM and 7.41 nM, respectively.

Turning to `Cc1cccc2c(C3=CCNCC3)c(C(=O)O)[nH]c12` [Example 36, 7-methyl-3-(1,2,3,6-tetrahydropyridin-4-yl)-1H-indole-2-carboxylic acid], the IC50 in assay [1] was 39800 nM; at IMP-1 (Imipenemase-1) it was > 100000 nM; in assay [2], 398 nM.

As for `Cc1cccc2c(-c3cncnc3)c(C(=O)O)[nH]c12` [Example 22, 7-methyl-3-(pyrimidin-5-yl)-1H-indole-2-carboxylic acid], the figures for the IC50 (in assay [1] (setting [3]); on IMP-1 (Imipenemase-1) (setting [4]); in assay [2] (setting [5])) were 1260 nM, > 100000 nM and 126 nM, respectively.

In the case of `CC(C)c1cccc2c(-c3ccc(S(N)(=O)=O)cc3)c(C(=O)O)[nH]c12` [Example 65, 7-isopropyl-3-(4-sulfamoylphenyl)-1H-indole-2-carboxylic acid], the IC50 is 12.6 nM in assay [1] (setting [3]), 31.6 nM on IMP-1 (Imipenemase-1) (setting [4]) and 1.58 nM in assay [2] (setting [5]).

In the case of `O=C(O)c1[nH]c2c(CCOc3ccccc3)cccc2c1-c1ccc(F)cc1` [Example 62, 3-(4-fluorophenyl)-7-(2-phenoxyethyl)-1H-indole-2-carboxylic acid], the IC50 was 158 nM in assay [1] (setting [3]), 316 nM on IMP-1 (Imipenemase-1) (setting [4]) and 5.01 nM in assay [2] (setting [5]).

Turning to `Cc1cccc2c(-c3ccc(C#N)cc3)c(C(=O)O)[nH]c12` [Example 7, 3-(4-cyanophenyl)-7-methyl-1H-indole-2-carboxylic acid], the IC50 was 200 nM in assay [1] (setting [3]), 7940 nM on IMP-1 (Imipenemase-1) (setting [4]) and 39.8 nM in assay [2] (setting [5]).

For the compound `Cc1cccc2c(-c3ccccn3)c(C(=O)O)[nH]c12` [Example 63, 7-methyl-3-(pyridin-2-yl)-1H-indole-2-carboxylic acid], the IC50 was 1000 nM in assay [1] (setting [3]), > 100000 nM on IMP-1 (Imipenemase-1) (setting [4]) and 316 nM in assay [2] (setting [5]).

With `Cc1cccc2c(-c3ccc(N)cc3)c(C(=O)O)[nH]c12` [Example 23, 3-(4-aminophenyl)-7-methyl-1H-indole-2-carboxylic acid], the IC50 in assay [1] (setting [3]) is 1000 nM; on IMP-1 (Imipenemase-1) (setting [4]) it was 7940 nM; in assay [2] (setting [5]) it was 31.6 nM.

As for `Cc1cccc2c(-c3cccc(Br)c3)c(C(=O)O)[nH]c12` [Example 18, 3-(3-bromophenyl)-7-methyl-1H-indole-2-carboxylic acid], the IC50 in assay [1] (setting [3]) is 50.1 nM; at IMP-1 (Imipenemase-1) (setting [4]), 2000 nM; in assay [2] (setting [5]), 20 nM.

For the compound `Cc1cccc2c(-c3ccc(Cl)cc3)c(C(=O)O)[nH]c12` [Example 42, 3-(4-chlorophenyl)-7-methyl-1H-indole-2-carboxylic acid], the IC50 in assay [1] (setting [3]) was 251 nM; on IMP-1 (Imipenemase-1) (setting [4]), 10000 nM; in assay [2] (setting [5]), 15.8 nM.

Take `Cc1cc(C)c2[nH]c(C(=O)O)c(-c3ccc(F)cc3)c2c1` [Example 59, 3-(4-fluorophenyl)-5,7-dimethyl-1H-indole-2-carboxylic acid]: the IC50 in assay [1] (setting [3]) was 501 nM; on IMP-1 (Imipenemase-1) (setting [4]), 25100 nM; in assay [2] (setting [5]), 126 nM.

On to `Cc1c(Oc2ccccc2)ccc2c(-c3ccc(F)cc3)c(C(=O)O)[nH]c12` [Example 64, 3-(4-fluorophenyl)-7-methyl-6-phenoxy-1H-indole-2-carboxylic acid], for which the IC50 was 501 nM in assay [1] (setting [3]), 1580 nM on IMP-1 (Imipenemase-1) (setting [4]) and 15.8 nM in assay [2] (setting [5]).

As for `Cc1cccc2c(-c3ccc(Cn4cncn4)cc3)c(C(=O)O)[nH]c12` [Example 33, 3-(4-((1H-1,2,4-triazol-1-yl)methyl)phenyl)-7-methyl-1H-indole-2-carboxylic acid], the IC50 in assay [1] (setting [3]) is 251 nM; at IMP-1 (Imipenemase-1) (setting [4]), 2000 nM; in assay [2] (setting [5]), 5.01 nM.

In the case of `Cc1ccccc1-c1c(C(=O)O)[nH]c2c(C)cccc12` [Example 41, 7-methyl-3-(o-tolyl)-1H-indole-2-carboxylic acid], the IC50 is 251 nM in assay [1] (setting [3]), 1580 nM at IMP-1 (Imipenemase-1) (setting [4]) and 316 nM in assay [2] (setting [5]).

`Cc1cccc2c(-c3ccc(N4CCOCC4)cc3)c(C(=O)O)[nH]c12` [Example 13, 7-methyl-3-(4-morpholinophenyl)-1H-indole-2-carboxylic acid]: the IC50 was 1580 nM in assay [1] (setting [3]), 10000 nM at IMP-1 (Imipenemase-1) (setting [4]) and 12.6 nM in assay [2] (setting [5]).

On to `CC(C)c1cccc2c(-c3cc(F)cc(F)c3)c(C(=O)O)[nH]c12` [Example 78, 3-(3,5-difluorophenyl)-7-isopropyl-1H-indole-2-carboxylic acid], for which the IC50 in assay [1] (setting [3]) is 3.98 nM; on IMP-1 (Imipenemase-1) (setting [4]), 126 nM; in assay [2] (setting [5]) it was 10 nM.

With `CC(C)c1cccc2c(-c3ccc4[nH]ncc4c3)c(C(=O)O)[nH]c12` [Example 75, 3-(1H-indazol-5-yl)-7-isopropyl-1H-indole-2-carboxylic acid], the IC50 is 10 nM in assay [1] (setting [3]), 25.1 nM at IMP-1 (Imipenemase-1) (setting [4]) and 2 nM in assay [2] (setting [5]).

On to `CC(C)c1cccc2c(-c3ccc(S(C)(=O)=O)cc3)c(C(=O)O)[nH]c12` [Example 67, 7-isopropyl-3-(4-(methylsulfonyl)phenyl)-1H-indole-2-carboxylic acid], for which the IC50 in assay [1] (setting [3]) was 20 nM; on IMP-1 (Imipenemase-1) (setting [4]) it was 39.8 nM; in assay [2] (setting [5]) it was 2.51 nM.

`CC(C)NC(=O)c1[nH]c2c(C(C)C)cccc2c1-c1ccc(S(=O)(=O)N(C)C)cc1` [Example 123, 3-(4-(N,N-dimethylsulfamoyl)phenyl)-N,7-diisopropyl-1H-indole-2-carboxamide]: the “pIC50 VIM-2” value in assay [1] is “N.I”. In addition, at IMP-1 (Imipenemase-1), the “pIC50 IMP-1” value is on record as “N.I”. Also, in assay [2], the “pIC50 NDM-1” value was “N.I”.

As for `COc1cc(C)c2[nH]c(C(=O)O)c(-c3ccc(F)cc3)c2c1` [Example 60, 3-(4-fluorophenyl)-5-methoxy-7-methyl-1H-indole-2-carboxylic acid], the IC50 in assay [1] (setting [3]) is 631 nM; at IMP-1 (Imipenemase-1) (setting [4]) it was > 100000 nM; in assay [2] (setting [5]), 126 nM.

Consider `COc1ccccc1-c1c(C(=O)O)[nH]c2c(C)cccc12` [Example 20, 3-(2-methoxyphenyl)-7-methyl-1H-indole-2-carboxylic acid], for which the values for the IC50 (in assay [1] (setting [3]); on IMP-1 (Imipenemase-1) (setting [4]); in assay [2] (setting [5])) were 200 nM, 79400 nM and 126 nM, respectively.

Consider `CC(C)c1cccc2c(-c3ccc(Cn4cccn4)cc3)c(C(=O)O)[nH]c12` [Example 79, 3-(4-((1H-pyrazol-1-yl)methyl)phenyl)-7-isopropyl-1H-indole-2-carboxylic acid], for which the IC50 in assay [1] (setting [3]) is 3.98 nM; at IMP-1 (Imipenemase-1) (setting [4]), 15.8 nM; in assay [2] (setting [5]), 0.501 nM.

With `Cc1cccc2c(-c3ccc(-c4ccccc4)cc3)c(C(=O)O)[nH]c12` [Example 40, 3-([1,1′-biphenyl]-4-yl)-7-methyl-1H-indole-2-carboxylic acid], the IC50 is 251 nM in assay [1] (setting [3]), 1580 nM on IMP-1 (Imipenemase-1) (setting [4]) and 15.8 nM in assay [2] (setting [5]).

Turning to `CNC(=O)c1[nH]c2c(C(C)C)cccc2c1-c1ccc(S(=O)(=O)N(C)C)cc1` [Example 122, 3-(4-(N,N-dimethylsulfamoyl)phenyl)-7-isopropyl-N-methyl-1H-indole-2-carboxamide], the IC50 (in assay [1] (setting [3]); at IMP-1 (Imipenemase-1) (setting [4])) was > 20000 nM each time.

In the case of `Cc1ccc2[nH]c(C(=O)O)c(-c3ccc(F)cc3)c2c1` [Example 121, 3-(4-fluorophenyl)-5-methyl-1H-indole-2-carboxylic acid], the IC50 in assay [1] (setting [3]) was 39800 nM; in assay [2] (setting [5]) it was 6310 nM.
